Results reported in patent publication US20090280068A1, “POLYMORPH OF 8-HYDROXY-5-[(1R)-1-HYDROXY-2-[[(1R)-2-(4-METHOXYPHENYL)-1-METHYLETHYL]AMINO]ETHYL]-2(1H)-QUINOLINONE MONOHYDROCHLORIDE” (Chiesi Farmaceutici S.p.A., priority 2008, published 2009).

Assay: Stability studies: storage under different relative humidity conditions, checked by XRPD pattern
Type: physicochemical
Conditions: solid stored at 25° C., 1 week each at 40%, 60%, 80%, 30%, 0% and 40% RH
Description: The XRPD analyses were carried out on a PANanalytical X'pert Pro X-ray powder diffractometer using Cu Kα radiation. The instrument was equipped with a X'Celerator detector. A theta-two theta continuous scan from 2.5 degrees 2 theta to 40 degrees 2 theta was used. Each sample was prepared for analysis by placing it in a quartz sample holder. The XPRD patterns are reported in terms of degrees 2 theta (°2θ, accuracy ±0.1°), diffraction peak intensity (height, [cts]), full width at half maximum (FWHM, [°2θ]), interatomic spacing in angstroms (d-spacing, [Å]), and relative intensities (%). The relative intensity is recorded as the ratio of the peak intensity to that of the most intense peak.
In order to check its thermodynamic stability, CHF 4226 crystal form D was stored at room temperature under different relative humidity (RH) conditions: • 40% RH. and 25° C. for 1 week • 60% RH. and 25° C. for 1 week • 80% RH and 25° C. for 1 week • 60% RH and 25° C. for 1 week • 40% RH and 25° C. for 1 week • 30% RH and 25° C. for 1 week • 0% RH. and 25° C. for 1 week • 40% RH and 25° C. for 1 week The thermodynamic stability of all the samples was checked by recording their XPRD pattern.

Structure (SMILES): COc1ccc(C[C@@H](C)NC[C@H](O)c2ccc(O)c3[nH]c(=O)ccc23)cc1.Cl [CHF 4226 crystal form D, 8-hydroxy-5-[(1R)-1-hydroxy-2-[[(1R)-2-(4-methoxyphenyl)-1-methylethyl]amino]ethyl]-2(1H)-quinolinone monohydrochloride]
- thermodynamic stability (XPRD pattern after storage): stable features under all stability screening conditions
